Conditions: Crystal; for vapor or sublimation pressure: Calculated from knudsen effusion weight loss

O=C(O)c1cc(O)c(O)c(O)c1 [3,4,5-trihydroxybenzoic acid]
Conditions	Normal melting temperature [°C]	vapor or sublimation pressure [kPa]
432.88 K	–	9.61e-05
434.44 K	–	0.0001197
436.46 K	–	0.0001349
438.62 K	–	0.0001688
440.5 K	–	0.0001779
442.58 K	–	0.0002341
444.57 K	–	0.000257
446.54 K	–	0.000313
448.7 K	–	0.0003927
450.78 K	–	0.0004674
452.6 K	–	0.0005635
454.63 K	–	0.0006284
456.47 K	–	0.0008057
458.78 K	–	0.0009376
DTA	263.5	–

From the NIST ThermoML archive (doi:10.1016/j.jct.2018.09.027)
